From EP4778921A1, “SALT FORM AND CRYSTAL FORM OF NITROGEN-CONTAINING HETEROCYCLIC DERIVATIVE INHIBITOR, AND PREPARATION METHOD THEREFOR AND USE THEREOF” (Shanghai Hansoh Biomedical Co., Ltd., priority 2023, dated 2025)

Key:
Ba/F3 EGFR Del19/C797S = assay: Cell proliferation inhibition experiment (Cell Titer-Glo); format: cell-based; conditions: Mus musculus, 72 hours, read-out: Ba/F3 EGFR Dell9/C797S IC50
Experimental: (§1) Experimental objective: The objective of this test example is to test the inhibitory activity of compounds on the proliferation of different EGFR C797S drug-resistant mutant cell lines Ba/F3 EGFR Del19/T790M/C797S, Ba/F3 EGFR L858R/T790M/C797S, and Ba/F3 EGFR Del19/C797S. Experimental instruments: Centrifuge (Eppendorf 5810R); Microplate reader (BioTek Synergy H1) Pipette (Eppendorf or Rainin); Carbon dioxide incubator (Thermo 311) Cell counter (Life Countess II) Experimental reagents and consumables: • Ba/F3 EGFR Del19/T790M/C797S cells were purchased from KYinno Biotechnology Co., Ltd.; • Ba/F3 EGFR Del19/C797S cells were purchased from CoBioer Biosciences Co., Ltd.; • Ba/F3 EGFR L858R/T790M/C797S cells were purchased from CoBioer Biosciences Co., Ltd.; • Cell Titer-Glo was purchased from Promega, with a catalogue number of G7573; • RPMI 1640 was purchased from Gibco, with a catalogue number of 22400089; • FBS was purchased from Gibco, with a catalogue number of 10091148; • cell culture plates were purchased from Corning, with a catalogue number of 3610. Experimental methods: The inhibitory activity of the compound on the proliferation of different EGFR C797S drug-resistant mutant cell lines was detected using the Cell Titer-Glo method. The different cell lines were cultured in RPMI 1640 complete culture medium containing 10% FBS under conditions of 37°C and 5% CO2, the cells were collected by centrifugation when growing to a certain density, and adjusted to appropriate cell density after counting, the cells were spread on a white 96-well plate at 90 µL/well, and cultured in a 37°C, 5% CO2 incubator overnight, prepared compound solutions at different concentrations were added at 10 µL/well, corresponding solvent controls were set, and all wells were cultured in a 37°C, 5% CO2 incubator for 72 hours, 50 µL of CellTiter-Glo solution was added to each well, shook and mixed evenly, and incubated in the dark for 10 minutes, and a BioTek Synergy H1 microplate reader was used for reading. Experimental data processing method: The luminescence signal value was used to calculate the inhibition rate. Graphpad Prism software was used to fit the concentration and inhibition rate to a nonlinear regression curve, so as to obtain the IC50 value, as shown in the Table below for details.

[1] = system: Ba/F3 EGFR L858R/T790M/C797S; assay: as above; format: cell-based; conditions: Mus musculus, 72 hours, read-out: Ba/F3 EGFR L858R_T790M_C797S IC50
Experimental: as §1

[2] = system: Ba/F3 EGFR Del19/T790M/C797S; assay: as above; format: cell-based; conditions: Mus musculus, 72 hours, read-out: Ba/F3 EGFR Del19_T790M_C797S IC50
Experimental: as §1

[3] = Rat pharmacokinetic evaluation test; format: in vivo; conditions: male, po, SD rats, plasma, p.o. 5 mg/kg
Experimental: 1. Study objective: SD rats were used as test animals to study the pharmacokinetic behaviour of the compounds of the present invention in rats (plasma) after oral administration at a dose of 5 mg/kg. 2. Experimental scheme: 2.1 Experimental drugs: The example compounds of the present invention, made in house. 2.2 Experimental animals: 3 SD rats/group, male, from Shanghai Jiesijie Experimental Animal Co., Ltd., animal production license number (SCXK (Shanghai) 2013-0006 N0.311620400001794). 2.3 Preparation formulation: • Formulation of drug for oral administration: 20% solutol HS15 in 0.5% MC (methylcellulose) • 20 g of a Solutol HS15 solid and 0.5 g of a MC solid powder were weighed and dissolved in 80 mL of purified water, and the mixture was vortexed, mixed until uniform, and subjected to ultrasound treatment to obtain a clear solution of 20% solutol HS15 in 0.5% MC. The example compound was weighed into a 20 mL glass vial, the solution was added thereto and the mixture was subjected to ultrasound treatment for 10 minutes to obtain a clear solution at a concentration of 0.5 mg/mL. 2.4 Administration: 3 male SD rats were administered p.o. respectively after the rats were fasted overnight; and the p.o. dose was 5 mg/kg and the administration volume was 10 mL/kg. 2.5 Sample collection: Blood collection: Before and after administration to rats, 0.2 mL of blood was collected from the jugular vein at 0.25, 0.5, 1, 2, 4, 6, 8 and 24 h, and placed in an EDTA-K2 anticoagulation tube, which was centrifuged at 6000 rpm at 4°C for 6 min to separate plasma which was stored at -80°C; and the animals were fed 4 h after administration. 2.6 Sample treatment: • 1) Acetonitrile (160 µL) was added to plasma sample (40 µL) for precipitation, and the mixture was centrifuged at 3500 × g for 5-20 min. • 2) The treated supernatant solution was taken and subjected to LC/MS/MS to analyse the concentrations of the test compound. LC/MS/MS analysis instrument: AB Sciex API 4000 Qtrap. 2.7 Liquid phase analysis: • Liquid phase conditions: Shimadzu LC-20AD pump • Chromatographic column: Agilent ZORBAX XDB-C18 (50 × 2.1 mm, 3.5 µm), mobile phase: solution A: 0.1% formic acid in water, solution B: acetonitrile • Flow rate: 0.4 mL/min • Elution time: 0-4.0 min, with eluents as follows:
3. Experimental results and analysis: The main pharmacokinetic parameters were calculated using WinNonlin 6.1.

[4] = Solid stability experiment of crystal form A of phosphate (5, 10, 20 and 30 days); format: physicochemical; conditions: 60°C (GW, sealed), 50°C/75% RH (JS, unsealed), room temperature/92.5% RH (GS, unsealed)
Experimental: • 5.1 Experimental objective: To investigate and compare the stability of the crystal form A of phosphate under the three conditions of a high temperature of 60°C (GW, sealed), 50°C/75% RH (JS, unsealed), and room temperature/92.5% RH (GS, unsealed) and provide a basis for the screening of the crystal forms of salts and the storage of the salts of the compound. • 5.2 Experimental scheme: About 2 mg of crystal form A of phosphate was weighed into 2 mL dry and clean glass vials, respectively. The vials were respectively placed under the conditions of 60°C (GW, sealed), 50°C/75% RH (JS, unsealed), and room temperature/92.5% RH (GS, unsealed) for 5, 10, 20 and 30 days. […] Therefore, the crystal form can well meet the requirements of subsequent long-term storage and formulation processes.

[5] = Hygroscopicity experiment (crystal forms of salts and crystal form A of free base); format: physicochemical
Description: • 2.1 Experimental objective: The hygroscopicity of different crystal forms of salts of the compound was investigated under various relative humidity conditions to provide a basis for screening and storage of the crystal forms of salts of the compound. • 2.2 Experimental scheme: The crystal forms of salts of the compound were placed in saturated water vapor at different relative humidities to reach a dynamic equilibrium between the compound and the water vapor.
3.1 Experimental objective: The hygroscopicity of crystal form A of free base of the compound was investigated under various relative humidity conditions to provide a basis for screening and storage of the crystal forms of the compound.
3.2 Experimental scheme: The crystal form A of free base of the compound was placed in saturated water vapor at different relative humidities to reach a dynamic equilibrium between the compound and the water vapor. The percentage weight gain of the compound due to moisture absorption was calculated after the equilibrium.

[6] = Solubility experiments in different media, crystal forms of salts; format: physicochemical; parameters: thermodynamic solubility FaSSIF / thermodynamic solubility FaSSGF / thermodynamic solubility FeSSIF: unit not given here; conditions: about 2 mg suspended for 24 hours, 37°C, HPLC, external standard method
Description: 4.1 Experimental objective: The solubility of the crystal form A of phosphate, crystal form A of hydrochloride, crystal form A of sulphate, crystal form A of citrate, crystal form A of oxalate, crystal form A of maleate and crystal form A of salicylate in media such as artificial simulated gastric fluid (FaSSGF), fasted-state artificial simulated intestinal fluid (FaSSIF), and fed-state artificial simulated intestinal fluid (FeSSIF) was compared to provide a basis for the evaluation of the potential of the crystal forms of salts being manufactured as a drug. […]

CC(C)c1c(F)cc(N2C[C@H](NS(C)(=O)=O)[C@H]2C)c2cnc(Nc3ccnc(-c4cn(C)nc4Cl)n3)cc12 [Example 14, N-((2R,3S)-1-(3-((2-(3-chloro-1-methyl-1H-pyrazol-4-yl)pyrimidin-4-yl)amino)-6-fluoro-5-isopropylisoquinolin-8-yl)-2-methylazetidin-3-yl)methanesulphonamide]
IC50 (Ba/F3 EGFR Del19/C797S): 2.6 nM | IC50 [1]: 8.8 nM

CC(C)c1c(F)cc(N2C[C@H](CS(C)(=O)=O)[C@H]2C)c2cnc(Nc3ccnc(-c4cn(C)nc4Cl)n3)cc12 [Example 1, N-(2-(3-chloro-1-methyl-1H-pyrazol-4-yl)pyrimidin-4-yl)-6-fluoro-5-isopropyl-8-((2R,3S)-2-methyl-3-((methanesulphonyl)methyl)azetidin-1-yl)isoquinolin-3-amine]
IC50 (Ba/F3 EGFR Del19/C797S): 11 nM | IC50 [2]: 7.1 nM | IC50 [1]: 14 nM | AUC(0-t) [3]: 2100 ng·h/mL | Cmax [3]: 178 ng/mL | half-life [3]: 2.3 h

CC(C)c1c(F)cc(N2C[C@H](N(C)S(C)(=O)=O)[C@H]2C)c2cnc(Nc3ccnc(-c4cn(C)nc4Cl)n3)cc12 [crystal form A of phosphate, N-((2R,3S)-1-(3-((2-(3-chloro-1-methyl-1H-pyrazol-4-yl)pyrimidin-4-yl)amino)-6-fluoro-5-isopropylisoquinolin-8-yl)-2-methylazetidin-3-yl)-N-methylmethanesulphonamide]
stability (impurity increase) [4]: relatively stable | weight gain after moisture absorption ([5]; RH 80%): 0.533% | hygroscopicity ([5]; RH 80%, result in words): weak hygroscopicity | crystal form transformation (XRPD pattern) ([5]; after 1 cycle of moisture absorption and desorption, 0-95% relative humidity): no crystal form transformation occurred | thermodynamic solubility FaSSGF ([6]; FaSSGF (artificial simulated gastric fluid)): 0.010 | thermodynamic solubility FaSSIF ([6]; FaSSIF (fasted-state artificial simulated intestinal fluid)): 0.203 | solubility thermodynamic at 24 h ([6]; thermodynamic from solid, FeSSIF (fed-state artificial simulated intestinal fluid)): 1200 µg/mL

Cc1nn(C)cc1-c1nccc(Nc2cc3c(C(C)C)c(F)cc(N4C[C@H](N(C)S(C)(=O)=O)[C@H]4C)c3cn2)n1 [Example 5, N-((2R,3S)-1-(3-((2-(1,3-dimethyl-1H-pyrazol-4-yl)pyrimidin-4-yl)amino)-6-fluoro-5-isopropylisoquinolin-8-yl)-2-methylazetidin-3-yl)-N-methylmethanesulphonamide]
IC50 (Ba/F3 EGFR Del19/C797S): 7.8 nM | IC50 [2]: 4.5 nM | AUC(0-t) [3]: 2000 ng·h/mL | Cmax [3]: 157 ng/mL | half-life [3]: 3.9 h

CC(C)c1c(F)cc(N2C[C@H](N(C)S(C)(=O)=O)[C@H]2C)c2cnc(Nc3ccnc(-c4cn(C)nc4Cl)n3)cc12 [Example 2, N-((2R,3S)-1-(3-((2-(3-chloro-1-methyl-1H-pyrazol-4-yl)pyrimidin-4-yl)amino)-6-fluoro-5-isopropylisoquinolin-8-yl)-2-methylazetidin-3-yl)-N-methylmethanesulphonamide]
IC50 (Ba/F3 EGFR Del19/C797S): 6.2 nM | IC50 [2]: 4.5 nM | IC50 [1]: 15 nM | AUC(0-t) [3]: 1770 ng·h/mL | Cmax [3]: 142 ng/mL | half-life [3]: 3.9 h
